# Data: US10106580B2, “Enopeptins, uses thereof, and methods of synthesis thereto” (Brown University, priority 2011, dated 2018)
# Numbered stars: 1 amine (or outer) side, 2 acyl side, 3 side chain; on linkers, the order of the positions; unused ones are H or OH. Bridge positions count the residues as written; N and C are the ends. Square brackets hold non-standard residues; d marks the D form. Peptide text beside a SMILES is read from it. * marks the point of attachment. Phe(3-F) = N[C@@H](Cc1cccc(F)c1)C(=O)O; X2 = CC1CCN([*:1])[C@@H](C(=O)[*:2])C1; X1 = CC1CCN([*:1])[C@H](C(=O)[*:2])C1; X3 = CCC(CC)(C(=O)[*:2])N(C)[*:1]; Heptenoyl(2E) = CCCC/C=C/C(=O)*; NMeAc6c = CNC1(C(=O)O)CCCCC1; NMeAc5c = CNC1(C(=O)O)CCCC1; NMeAc4c = CNC1(C(=O)O)CCC1
# How the values were obtained:
# [1] = system: Methicillin-resistant S. aureus (clinical isolate from blood); test: Broth dilution MIC/MBC vs methicillin-resistant S. aureus; format: cell-based; conditions: Staphylococcus aureus, MRSA (clinical isolate from blood); for MBC: 99.9% kill after 24 h
# Excerpt: (§1) The naturally occurring enopeptins and the synthetic derivative ADEP 4 are reported to have strong antibacterial activity (see, e.g., Hinzen et al., Chem Med Chem 2006, 1, 689). Broth dilution assays were used to determine the MICs of the acyldepsipeptide derivatives 10a-h against both ATCC strains and clinical isolates of S. epidermis, S. aureus, and Enterococci obtained from patients of the Veterans Affairs Medical Center in Providence, R.I. Clinical isolates were included to gain a better indication of the potential of these new antibacterial agents (see, e.g., Clinical and Laboratory Standard Institute (CLSI) Methods for dilution antimicrobial susceptibility tests for bacteria that grow aerobically M07-A8; CLSI 8th ed., Wayne, Pa., 2009; Clinical Laboratory Standards Institute (CLSI) Performance standards for antimicrobial susceptibility testing M100-S19. CLSI 19th informational suppl., Wayne, Pa. 2009). In the interest of assessing the cell-killing ability of these compounds, the minimal bactericidal concentrations (MBC) of the compounds was also determined against the aformentioned strains. The MIC was defined as the lowest concentration of an antimicrobial agent visually inhibiting more than 99% of the colonies.
# (§2) Minimum inhibitory concentrations (MIC) were determined in duplicate using methods outlined by The Clinical and Laboratory Standards Institute. Compounds were dissolved in DMSO and fresh cation-adjusted Mueller-Hinton broth (SMHB; Difco Laboratories, Sparks, Md., USA; 25 μg/mL calcium and 12.5 μg/mL magnesium) was used to dilute antimicrobial agents in a serial 2-fold schedule. Colony counts for the inoculum verification was determined using Tryptic Soy Agar plates (TSA, Difco, Becton Dickinson Co., Sparks, Md., USA). Following incubation, 100 μL of broth was subcultured onto TSA for MBC determination. MIC and MBC determination can be found in Table 2 and 3. Control isolates were obtained from the American Type Culture Collection (ATCC) and were as follows: Methicillin-resistant S. epidermidis (MRSE ATCC 35984); MSSA (ATCC 35556) and, VRE (ATCC 2030).
# [2] = system: Methicillin-susceptible S. aureus (ATCC 35556); test: Broth dilution MIC/MBC vs methicillin-susceptible S. aureus; format: cell-based, Staphylococcus aureus; conditions: for MIC / MBC: Staphylococcus aureus, ATCC 35556 / MSSA, MSSA (ATCC 35556); for MBC: 99.9% kill after 24 h
# Excerpt: as §1, §2
# [3] = system: Enterococcus faecalis (clinical isolate from rectal swab); test: Broth dilution MIC/MBC vs E. faecalis clinical isolate; format: cell-based; conditions: EF^2: E. faecalis (clinical isolate from rectal swab)
# Excerpt: as §1, §2
# [4] = system: Vancomycin-resistant Enterococcus faecalis (clinical isolate from rectal swab); test: Broth dilution MIC/MBC vs vancomycin-resistant E. faecalis; format: cell-based; conditions: VRE
# Excerpt: as §1, §2
# [5] = system: Staphylococcus epidermis (ATCC 25984); test: Broth dilution MIC/MBC vs Staphylococcus epidermis; format: cell-based; conditions: ATCC25984
# Excerpt: as §1, with “The MIC was defined as the lowest concentration of an antimicrobial agent visually inhibiting more than 99% of the colonies.” left out
# (§3) Minimum inhibitory concentrations (MIC) were determined in duplicate using methods outlined by The Clinical and Laboratory Standards Institute. […] Colony counts for the inoculum verification was determined using Tryptic Soy Agar plates (TSA, Difco, Becton Dickinson Co., Sparks, Md., USA). […]
# [6] = system: Vancomycin-resistant Enterococcus faecium (clinical isolate obtained from tissue); test: Broth dilution MIC/MBC vs vancomycin-resistant E. faecium; format: cell-based; conditions: VRE
# Excerpt: as §1, §2
# [7] = system: Enterococcus faecalis (ATCC 29212); test: Broth dilution MIC/MBC vs E. faecalis ATCC strain; format: cell-based; conditions: ATCC29212, EF^1: E. faecalis (ATCC 29212)
# Excerpt: as §1, §2
# S. aureus strains = test: Antibacterial activity vs S. aureus strains, stated in words; format: cell-based, Staphylococcus aureus
# Excerpt: as §1, with “The MIC was defined as the lowest concentration of an antimicrobial agent visually inhibiting more than 99% of the colonies.” left out
# as §3
# [8] = system: E. faecalis and vancomycin-resistant E. faecium; test: Antibacterial activity vs panel of pathogenic Enterococci, stated in words; format: cell-based; conditions: against E. faecalis and vancomycin-resistant E. faecium
# Excerpt: as §1, with “The MIC was defined as the lowest concentration of an antimicrobial agent visually inhibiting more than 99% of the colonies.” left out
# as §3
MIC [1] [µg/mL],MIC [2] [µg/mL],SMILES,MBC [1] [µg/mL],MBC [2] [µg/mL],MBC [3] [µg/mL],MIC [3] [µg/mL],MBC [4] [µg/mL],MIC [4] [µg/mL],MBC [5] [µg/mL],MIC [5] [µg/mL],MBC [6] [µg/mL],MIC [6] [µg/mL],MBC [7] [µg/mL],MIC [7] [µg/mL],antibacterial activity (S. aureus strains),antibacterial activity compared with compound 10a [8],"antibacterial activity compared with compound 10a ([2]; against MSSA, in words)"
> 312,78.1,CCCC/C=C/C(=O)N[C@@H](Cc1cccc(F)c1)C(=O)N[C@H]1COC(=O)[C@@H]2CCCN2C(=O)[C@H](C)NC(=O)C(CC)(CC)N(C)C(=O)[C@@H]2CCCN2C1=O [Compound 10e] ({Heptenoyl(2E)}-[Phe(3-F)]SP[X3]AP; ester 2-C),> 312,> 312,,,,,,,,,,,,,
> 312,39.1,CCCC/C=C/C(=O)N[C@@H](Cc1cccc(F)c1)C(=O)N[C@H]1COC(=O)[C@@H]2CCCN2C(=O)[C@H](C)NC(=O)C2(CCCCC2)N(C)C(=O)[C@@H]2CCCN2C1=O [Compound 10h] ({Heptenoyl(2E)}-[Phe(3-F)]SP[NMeAc6c]AP; ester 2-C),> 312,> 312,,,,,,,,,,,,,
> 312,39.1,CCCC/C=C/C(=O)N[C@@H](Cc1cccc(F)c1)C(=O)N[C@H]1COC(=O)[C@@H]2CCCN2C(=O)[C@H](C)NC(=O)C2(CCCC2)N(C)C(=O)[C@@H]2CCCN2C1=O [Compound 10g] ({Heptenoyl(2E)}-[Phe(3-F)]SP[NMeAc5c]AP; ester 2-C),> 312,> 312,,,,,,,,,,,,,
> 156,> 156,CCCC/C=C/C(=O)N[C@@H](Cc1cccc(F)c1)C(=O)N[C@H]1COC(=O)[C@@H]2CCCN2C(=O)[C@H](C)NC(=O)[C@H]2CC(C)CCN2C(=O)[C@@H]2CCCN2C1=O (some centres unmarked) [Compound 10d] ({Heptenoyl(2E)}-[Phe(3-F)]SP[X2]AP; ester 2-C),0.156,> 156,,,,,,,,,,,,,
> 312,312,CCCC/C=C/C(=O)N[C@@H](Cc1cccc(F)c1)C(=O)N[C@H]1COC(=O)[C@@H]2CCCN2C(=O)[C@H](C)NC(=O)C2(CCC2)N(C)C(=O)[C@@H]2CCCN2C1=O [Compound 10f] ({Heptenoyl(2E)}-[Phe(3-F)]SP[NMeAc4c]AP; ester 2-C),> 312,> 312,,,,,,,,,,,,,

# Second part, the molecule before the results:
SMILES,MIC [1] [µg/mL],MIC [2] [µg/mL],MBC [1] [µg/mL],MBC [2] [µg/mL],MBC [3] [µg/mL],MIC [3] [µg/mL],MBC [4] [µg/mL],MIC [4] [µg/mL],MBC [5] [µg/mL],MIC [5] [µg/mL],MBC [6] [µg/mL],MIC [6] [µg/mL],MBC [7] [µg/mL],MIC [7] [µg/mL],antibacterial activity (S. aureus strains),antibacterial activity compared with compound 10a [8],"antibacterial activity compared with compound 10a ([2]; against MSSA, in words)"
CCCC/C=C/C(=O)N[C@@H](Cc1cccc(F)c1)C(=O)N[C@H]1COC(=O)[C@@H]2CCCN2C(=O)[C@H](C)NC(=O)[C@@H]2CCCCN2C(=O)[C@@H]2CCCN2C1=O [Compound 10a],1.25,1.25,1.25,1.25,0.04,0.04,0.04,0.04,1.25,1.25,0.08,0.08,1.25,0.16,exhibited the expected antibacterial activity,,
CCCC/C=C/C(=O)N[C@@H](Cc1cccc(F)c1)C(=O)N[C@H]1COC(=O)[C@@H]2CCCN2C(=O)[C@H](C)NC(=O)[C@H]2CCCCN2C(=O)[C@@H]2CCCN2C1=O [Compound 10b],> 312,> 312,> 312,> 312,,,,,,,,,,,,,
CCCC/C=C/C(=O)N[C@@H](Cc1cccc(F)c1)C(=O)N[C@H]1COC(=O)[C@@H]2CCCN2C(=O)[C@H](C)NC(=O)[C@@H]2CC(C)CCN2C(=O)[C@@H]2CCCN2C1=O (some centres unmarked) [Compound 10c] ({Heptenoyl(2E)}-[Phe(3-F)]SP[X1]AP; ester 2-C),0.6,0.6,2.4,0.6,0.04,0.02,0.04,0.04,,,0.08,0.04,0.08,0.04,,more potent activity,better activity than compound 10a
